Results as given in ChEMBL document CHEMBL1130530, “3D QSAR analysis of taxoids from Taxus cuspidata var. nana by comparative molecular field approach” (Bioorg Med Chem Lett, 1997).

system: P388; assay: Actual inhibitory activity in P388 leukemia cells by CoMFA analysis, expressed as log 1/IC50.; assay type: functional, cell-based; conditions: Mus musculus, P388, read-out: Log 1/IC50 (converted)

Row | Compound | IC50 [nM]
1 | CC(=O)O[C@@H]1C2=C(C)C(=O)C[C@@](O)([C@@H](OC(=O)c3ccccc3)[C@@H]3[C@]4(OC(C)=O)CO[C@@H]4C[C@H](O)[C@@]3(C)[C@H]1O)C2(C)C | 47.9
2 | CC(=O)O[C@@]12CO[C@@H]1C[C@H](O)[C@@]1(C)C(=O)[C@H](O)C3=C(C)[C@@H](OC(=O)[C@H](O)[C@@H](NC(=O)c4ccccc4)c4ccccc4)C[C@@](O)([C@@H](OC(=O)c4ccccc4)[C@H]21)C3(C)C | 42.7
3 | CC(=O)O[C@H]1C[C@@]2(O)[C@@H](OC(=O)c3ccccc3)[C@@H]3[C@]4(OC(C)=O)CO[C@@H]4C[C@H](O)[C@@]3(C)[C@@H](O)[C@H](O)C(=C1C)C2(C)C | 28.9
4 | C=C1[C@H]2C[C@@H]3C[C@H](O)C(C)=C([C@@H](OC(C)=O)[C@H](OC(C)=O)[C@]2(C)[C@@H](OC(C)=O)C[C@@H]1O)C3(C)C | 63.2
5 | C=C1[C@@H](OC(=O)/C=C/c2ccccc2)C[C@H](OC(C)=O)[C@@]2(C)[C@@H](OC(C)=O)[C@H](OC(C)=O)C3=C(C)C(=O)C[C@@H]([C@@H](OC(C)=O)[C@H]12)C3(C)C | 10
6 | C=C1[C@@H](OC(C)=O)CC[C@@]2(C)[C@@H](OC(C)=O)[C@H](OC(C)=O)C3=C(C)[C@@H](OC(C)=O)C[C@@H]([C@@H](OC(C)=O)[C@H]12)C3(C)C | 16.6
7 | CCCCCCC(=O)N[C@@H](c1ccccc1)[C@@H](O)C(=O)O[C@H]1C[C@@]2(O)[C@@H](OC(=O)c3ccccc3)[C@@H]3[C@]4(OC(C)=O)CO[C@@H]4C[C@H](O)[C@@]3(C)C(=O)[C@H](OC(C)=O)C(=C1C)C2(C)C | 18.2
8 | CC(=O)O[C@@]12CO[C@@H]1C[C@H](O)[C@@]1(C)C(=O)[C@H](O)C3=C(C)[C@@H](OC(=O)[C@H](O)[C@@H](NC(=O)C4CCC4)c4ccccc4)C[C@@](O)([C@@H](OC(=O)c4ccccc4)[C@H]21)C3(C)C | 66.1
9 | C=C1[C@@H](OC(=O)/C=C/c2ccccc2)CC[C@@]2(C)[C@@H](OC(C)=O)[C@H](OC(C)=O)C3=C(C)C(=O)C[C@@H]([C@@H](OC(C)=O)[C@H]12)C3(C)C | 10
10 | C=C1[C@@H](O)C[C@H](OC(C)=O)[C@@]2(C)[C@@H](OC(C)=O)[C@H](OC(C)=O)C3=C(C)C(=O)C[C@@H]([C@@H](OC(C)=O)[C@H]12)C3(C)C | 66.1
11 | CC(=O)O[C@H]1C[C@H]2[C@@H](OC(C)=O)CC3C[C@](C)(C(=O)[C@H](O)C(=C1C)C2(C)C)[C@@H](O)C[C@@H]3OC(=O)/C=C/c1ccccc1 | 47.9
12 | CC(=O)O[C@H]1C[C@@]2(O)[C@@H](OC(C)=O)[C@@H]3[C@@]4(CO4)[C@@H](OC(C)=O)C[C@H](OC(C)=O)[C@@]3(C)[C@@H](OC(C)=O)[C@H](OC(C)=O)C(=C1C)C2(C)C | 10
13 | CC(=O)O[C@H]1[C@@H]2[C@H](CO)[C@@H](OC(C)=O)C[C@H](OC(C)=O)[C@@]2(C)[C@@H](OC(C)=O)[C@H](OC(C)=O)C2=C(C)[C@@H](OC(C)=O)C[C@@H]1C2(C)C | 14.1
14 | C=C1[C@H]2C[C@@H]3CC(=O)C(C)=C([C@@H](OC(C)=O)[C@H](OC(C)=O)[C@]2(C)[C@@H](OC(C)=O)C[C@@H]1O)C3(C)C | 12.3
15 | CCCCCC(=O)N[C@@H](c1ccccc1)[C@@H](O)C(=O)O[C@H]1C[C@@]2(O)[C@@H](OC(=O)c3ccccc3)[C@@H]3[C@]4(OC(C)=O)CO[C@@H]4C[C@H](O)[C@@]3(C)C(=O)[C@@H](O)C(=C1C)C2(C)C | 89.2
16 | CC(=O)O[C@H]1C[C@@]2(O)[C@@H](OC(=O)c3ccccc3)[C@@H]3[C@]4(OC(C)=O)CO[C@@H]4C[C@H](O)[C@@]3(C)[C@@H](O)[C@H](OC(C)=O)C(=C1C)C2(C)C | 52.5
17 | C=C1[C@H]2C[C@@H]3C[C@H](OC(C)=O)C(C)=C([C@@H](OC(C)=O)[C@H](OC(C)=O)[C@]2(C)[C@@H](OC(C)=O)C[C@@H]1O)C3(C)C | 43.7
18 | C=C1[C@H]2C[C@]3(O)C[C@H](O)C(C)=C([C@@H](OC(C)=O)[C@H](OC(C)=O)[C@]2(C)[C@@H](OC(=O)c2ccccc2)C[C@@H]1O)C3(C)C | 25.1
19 | CC(=O)O[C@@]12CO[C@@H]1C[C@H](O)[C@]1(C)[C@@H]2[C@H](OC(=O)c2ccccc2)[C@]2(O)CC(=O)C(C)=C([C@@H](O)[C@@H]1O)C2(C)C | 100
20 | CC(=O)OC[C@H]1[C@H]2[C@H](O)[C@@H]3C[C@H](OC(C)=O)C(C)=C([C@@H](OC(C)=O)[C@H](OC(C)=O)[C@]2(C)[C@@H](OC(C)=O)C[C@@H]1OC(C)=O)C3(C)C | 12.3
21 | CCCCCC(=O)N[C@@H](c1ccccc1)[C@@H](O)C(=O)O[C@H]1C[C@@]2(O)[C@@H](OC(=O)c3ccccc3)[C@@H]3[C@]4(OC(C)=O)CO[C@@H]4C[C@H](O)[C@@]3(C)C(=O)[C@H](O)C(=C1C)C2(C)C [10-DEACETYLTAXAYUNNANINE A] | 40.8
22 | CC(=O)O[C@H]1C(=O)[C@@]2(C)[C@H]([C@H](OC(=O)c3ccccc3)[C@]3(O)C[C@H](O)C(C)=C1C3(C)C)[C@]1(OC(C)=O)CO[C@@H]1C[C@@H]2O [BACCATIN III] | 63.2
23 | C=C1[C@@H](O)C[C@H](OC(C)=O)[C@@]2(C)[C@@H](OC(C)=O)[C@H](OC(C)=O)C3=C(C)[C@@H](OC(C)=O)C[C@@H]([C@@H](OC(C)=O)[C@H]12)C3(C)C [DECINNAMOYLTAXININE J] | 12.6
24 | CC(=O)O[C@H]1C(=O)[C@@]2(C)[C@H]([C@H](OC(=O)c3ccccc3)[C@]3(O)C[C@H](OC(=O)[C@H](O)[C@@H](NC(=O)c4ccccc4)c4ccccc4)C(C)=C1C3(C)C)[C@]1(OC(C)=O)CO[C@@H]1C[C@@H]2O [PACLITAXEL] | 21.9
25 | C=C1[C@@H](OC(=O)/C=C/c2ccccc2)C[C@H](OC(C)=O)[C@@]2(C)[C@@H](OC(C)=O)[C@H](OC(C)=O)[C@]3(O)[C@@]4(C)CO[C@]3(C)C(=O)C[C@H]4[C@@H](OC(C)=O)[C@H]12 [TAXAGIFINE] | 10
26 | C=C1[C@@H](O)C[C@H](OC(C)=O)[C@@]2(COC(=O)c3ccccc3)[C@@H](OC(C)=O)[C@H](OC(C)=O)[C@]3(O)[C@@]4(C)CO[C@]3(C)C(=O)C[C@H]4[C@@H](OC(C)=O)[C@H]12 [TAXININ M] | 26.9
27 | CCCCCC(=O)N[C@@H](c1ccccc1)[C@@H](O)C(=O)O[C@H]1C[C@@]2(O)[C@@H](OC(=O)c3ccccc3)[C@@H]3[C@]4(OC(C)=O)CO[C@@H]4C[C@H](O)[C@@]3(C)C(=O)[C@H](OC(C)=O)C(=C1C)C2(C)C [TAXOL C] | 81.4
